Measured values reported in the NIST ThermoML archive (doi:10.1016/j.fluid.2017.09.014).
Numbers after ± are expanded uncertainties.

Experiment: xn = mol fraction of the nth substance listed
Details: Vibrating tube method, x2 = 0.9503

O=S=O [sulfur dioxide] + O=C=O
Details | mass density [kg/m3]
272.65 K, 226 kPa, Gas | 4.8 ± 0.2
272.65 K, 407 kPa, Gas | 8.5 ± 0.2
272.65 K, 503 kPa, Gas | 10.6 ± 0.2
272.65 K, 752 kPa, Gas | 16.2 ± 0.2
272.65 K, 1013 kPa, Gas | 22.1 ± 0.2
272.65 K, 1252 kPa, Gas | 27.9 ± 0.2
272.65 K, 1506 kPa, Gas | 34.4 ± 0.2
272.65 K, 1752 kPa, Gas | 40.9 ± 0.4
272.65 K, 1998 kPa, Gas | 47.9 ± 0.4
273.54 K, 25506 kPa, Liquid | 1065.1 ± 0.4
273.54 K, 26999 kPa, Liquid | 1069.9 ± 0.4
273.54 K, 29024 kPa, Liquid | 1076.3 ± 0.4
273.54 K, 29514 kPa, Liquid | 1077.7 ± 0.4
273.54 K, 30524 kPa, Liquid | 1080.9 ± 0.4
273.54 K, 31975 kPa, Liquid | 1085.1 ± 0.5
273.54 K, 32491 kPa, Liquid | 1086.7 ± 0.6
273.54 K, 33027 kPa, Liquid | 1088.3 ± 0.5
273.54 K, 33521 kPa, Liquid | 1089.7 ± 0.5
273.54 K, 34032 kPa, Liquid | 1091.1 ± 0.5
273.54 K, 34491 kPa, Liquid | 1092.3 ± 0.5
273.54 K, 35043 kPa, Liquid | 1093.9 ± 0.6
273.54 K, 35534 kPa, Liquid | 1095.1 ± 0.5
273.54 K, 36045 kPa, Liquid | 1096.7 ± 0.5
273.54 K, 36490 kPa, Liquid | 1097.6 ± 0.5
273.54 K, 37047 kPa, Liquid | 1099 ± 0.5
273.54 K, 37529 kPa, Liquid | 1100.5 ± 0.5
273.54 K, 38033 kPa, Liquid | 1101.8 ± 0.5
273.54 K, 38558 kPa, Liquid | 1103.1 ± 0.5
273.54 K, 41723 kPa, Liquid | 1110.7 ± 0.5
273.55 K, 20535 kPa, Liquid | 1047.9 ± 0.4
273.55 K, 24032 kPa, Liquid | 1060.4 ± 0.6
273.55 K, 24523 kPa, Liquid | 1061.9 ± 0.4
273.55 K, 25039 kPa, Liquid | 1063.6 ± 0.6
273.55 K, 26016 kPa, Liquid | 1066.9 ± 0.6
273.55 K, 26484 kPa, Liquid | 1068.3 ± 0.4
273.55 K, 27554 kPa, Liquid | 1071.7 ± 0.4
273.55 K, 28041 kPa, Liquid | 1073 ± 0.6
273.55 K, 28539 kPa, Liquid | 1074.9 ± 0.4
273.55 K, 30026 kPa, Liquid | 1079.4 ± 0.6
273.55 K, 30952 kPa, Liquid | 1082.2 ± 0.4
273.55 K, 31482 kPa, Liquid | 1083.6 ± 0.5
273.55 K, 38992 kPa, Liquid | 1104 ± 0.5
273.55 K, 39553 kPa, Liquid | 1105.7 ± 0.5
273.55 K, 40023 kPa, Liquid | 1106.6 ± 0.3
273.55 K, 40508 kPa, Liquid | 1107.8 ± 0.5
273.55 K, 41016 kPa, Liquid | 1109 ± 0.5
273.56 K, 12509 kPa, Liquid | 1014.7 ± 0.6
273.56 K, 13012 kPa, Liquid | 1017.2 ± 0.6
273.56 K, 13506 kPa, Liquid | 1019.3 ± 0.6
273.56 K, 17514 kPa, Liquid | 1036.2 ± 0.6
273.56 K, 18049 kPa, Liquid | 1038.2 ± 0.6
273.56 K, 18515 kPa, Liquid | 1040.1 ± 0.6
273.56 K, 19000 kPa, Liquid | 1042.1 ± 0.6
273.56 K, 19509 kPa, Liquid | 1044 ± 0.4
273.56 K, 20028 kPa, Liquid | 1046 ± 0.6
273.56 K, 21029 kPa, Liquid | 1049.7 ± 0.6
273.56 K, 21519 kPa, Liquid | 1051.3 ± 0.6
273.56 K, 21993 kPa, Liquid | 1053 ± 0.6
273.56 K, 22501 kPa, Liquid | 1054.9 ± 0.4
273.56 K, 23496 kPa, Liquid | 1058.4 ± 0.6
273.56 K, 41601 kPa, Liquid | 1110.4 ± 0.5
273.57 K, 9944 kPa, Liquid | 1001.9 ± 0.6
273.57 K, 10516 kPa, Liquid | 1004.5 ± 0.8
273.57 K, 11003 kPa, Liquid | 1007 ± 0.6
273.57 K, 11502 kPa, Liquid | 1009.5 ± 0.6
273.57 K, 12005 kPa, Liquid | 1012.2 ± 0.6
273.57 K, 14518 kPa, Liquid | 1023.6 ± 0.6
273.57 K, 14951 kPa, Liquid | 1025.4 ± 0.6
273.57 K, 15999 kPa, Liquid | 1029.8 ± 0.6
273.57 K, 16500 kPa, Liquid | 1031.9 ± 0.6
273.57 K, 17024 kPa, Liquid | 1034.2 ± 0.6
273.57 K, 23015 kPa, Liquid | 1056.6 ± 0.6
273.58 K, 8503 kPa, Liquid | 993.8 ± 0.8
273.58 K, 9008 kPa, Liquid | 996.7 ± 0.8
273.58 K, 9518 kPa, Liquid | 999.7 ± 0.8
273.58 K, 15602 kPa, Liquid | 1028.1 ± 0.6
273.6 K, 4001 kPa, Liquid | 964.9 ± 1
273.6 K, 5521 kPa, Liquid | 975.5 ± 0.8
273.6 K, 6005 kPa, Liquid | 978.7 ± 0.8
273.6 K, 6503 kPa, Liquid | 981.9 ± 0.8
273.6 K, 7034 kPa, Liquid | 984.6 ± 0.8
273.6 K, 7688 kPa, Liquid | 987.5 ± 0.8
273.6 K, 8003 kPa, Liquid | 990.6 ± 0.8
273.61 K, 4518 kPa, Liquid | 968.2 ± 0.8
273.61 K, 5013 kPa, Liquid | 972.1 ± 0.8
282.65 K, 800 kPa, Gas | 16.5 ± 0.2
282.65 K, 1249 kPa, Gas | 26.3 ± 0.2
282.66 K, 120 kPa, Gas | 2.5 ± 0.2
282.66 K, 211 kPa, Gas | 4.3 ± 0.2
282.66 K, 301 kPa, Gas | 6.1 ± 0.2
282.66 K, 408 kPa, Gas | 8.5 ± 0.2
282.66 K, 511 kPa, Gas | 10.6 ± 0.2
282.66 K, 608 kPa, Gas | 12.3 ± 0.2
282.66 K, 1009 kPa, Gas | 21.1 ± 0.2
282.66 K, 1509 kPa, Gas | 32.8 ± 0.2
282.66 K, 1705 kPa, Gas | 37.5 ± 0.2
282.66 K, 1909 kPa, Gas | 42.7 ± 0.2
282.66 K, 2010 kPa, Gas | 45.2 ± 0.2
282.66 K, 2199 kPa, Gas | 50.5 ± 0.4
282.66 K, 2508 kPa, Gas | 59.6 ± 0.4
282.66 K, 2702 kPa, Gas | 65.5 ± 0.4
282.66 K, 3008 kPa, Gas | 76 ± 0.4
283.31 K, 27537 kPa, Liquid | 1038.9 ± 0.4
283.31 K, 34500 kPa, Liquid | 1062.8 ± 0.4
283.31 K, 35516 kPa, Liquid | 1065.8 ± 0.4
283.31 K, 36037 kPa, Liquid | 1067.5 ± 0.4
283.31 K, 36515 kPa, Liquid | 1068.6 ± 0.4
283.31 K, 37578 kPa, Liquid | 1072.1 ± 0.4
283.31 K, 38061 kPa, Liquid | 1073.3 ± 0.4
283.32 K, 5005 kPa, Liquid | 910.4 ± 1.2
